Laboratory results taken from patent US8722729B2, “Unsaturated fatty acid monoesters and diesters on ascorbic acid and cosmetic uses thereof” (Pierre Fabre Dermo-Cosmetique, priority 2009, dated 2014).

System: Human dermal papilla cells
Assay: In vitro stimulation of the proliferation of dermal papilla cells (BrdU incorporation)
Format: cell-based
Settings: 12.5 μM; 60 h; best activity
Procedure: Human dermal papilla cells (Promocell) were placed in culture and held in early passage culture in DMEM medium supplemented with 10% FCS. They were then seeded in a 96-well plate in DMEM medium supplemented with 10% FCS for 12 h. The culture medium was replaced by serum-free DMEM medium then by DMEM supplemented with 1% FCS and molecules 1, 2, 3 and 4 at the different tested concentrations After incubation for 60 h, cell proliferation was evaluated by incorporation of BrdU.
The diagrams in appended FIG. 1 show the increase in BrdU incorporation and the stimulated cellular proliferation of the cells in the presence of the different molecules (as a percent of the control).

Structure (SMILES): CCCCC/C=C\C/C=C\CCCCCCCC(=O)OC1=C(OC(=O)CCCCCCC/C=C\C/C=C\CCCCC)C(C2COC(C)(C)O2)OC1=O (stereo not shown) [Molecule 1, diactodeca-9,12-dienoate of (9Z,9′Z,12Z,12′Z)-2-(2,2-dimethyl-1,3-dioxolan-4-yl)-5-oxo-2,5-dihydrofuran-3,4-diyl]
- Proliferation of the cells of the dermal papilla (percent of the control): 169%
